Results as given in ChEMBL document CHEMBL5500324, “The potential of marine-derived piperazine alkaloids: Sources, structures and bioactivities” (Eur J Med Chem, 2024).
Converted amounts (≈) assume the structure as drawn.

Tests used:
HT-29 = assay: Cytotoxicity against human HT-29 cells assessed as inhibition of cell growth; assay type: functional, cell-based
A549 [1] = assay: Cytotoxicity against human A549 cells assessed as inhibition of cell growth; assay type: functional, cell-based
P388 [2] = assay: Cytotoxicity against mouse P388 cells assessed as inhibition of cell growth; assay type: functional, cell-based
SK-MEL-28 = assay: Cytotoxicity against human SK-MEL-28 cells assessed as inhibition of cell growth; assay type: functional, cell-based
P388 [3] = assay: Cytotoxicity against mouse P388 cells assessed as reduction in cell viability; assay type: functional; conditions: read-out: ED50 (the source's name)
P388 [4] = assay: Cytotoxicity against mouse P388 cells; assay type: functional; conditions: read-out: ED50 (the source's name)
DU-145 = assay: Cytotoxicity against human DU-145 cells assessed as cell growth inhibition measured after 48 hrs by MTT assay; assay type: functional, cell-based; conditions: DU-145, 48 h
QG-56 = assay: Cytotoxicity against human QG-56 cells assessed as reduction in cell growth incubated for 24 hrs by MTT assay; assay type: functional, cell-based; conditions: QG-56, 24 h
A549 [5] = assay: Cytotoxicity against human A549 cells assessed as reduction in cell viability measured for 48 hrs by MTT assay; assay type: functional, cell-based; conditions: A549, 48 h
MOLT-4 = assay: Cytotoxicity against human MOLT-4 cells assessed as reduction in cell viability by MTT assay; assay type: functional, cell-based
Bel-7402 = assay: Cytotoxicity against human Bel-7402 cells assessed as reduction in cell viability measured for 48 hrs by MTT assay; assay type: functional, cell-based; conditions: Bel-7402, 48 h
HL-60 = assay: Cytotoxicity against human HL-60 cells assessed as reduction in cell viability by MTT assay; assay type: functional, cell-based
U-937 = assay: Cytotoxicity against human U-937 cells assessed as reduction in cell growth incubated for 48 hrs by CCK-8 assay; assay type: functional, cell-based; conditions: U-937, 48 h
HepG2 = assay: Cytotoxicity against human HepG2 cells assessed as reduction in cell growth incubated for 48 hrs by SRB assay; assay type: functional, cell-based; conditions: HepG2, 48 h
NCI-H460 = assay: Cytotoxicity against human NCI-H460 cells assessed as reduction in cell growth incubated for 48 hrs by SRB assay; assay type: functional, cell-based; conditions: NCI-H460, 48 h
SF-268 = assay: Cytotoxicity against human SF-268 cells assessed as reduction in cell growth incubated for 48 hrs by SRB assay; assay type: functional, cell-based; conditions: SF-268, 48 h
MCF7 = assay: Cytotoxicity against human MCF7 cells assessed as reduction in cell growth incubated for 48 hrs by SRB assay; assay type: functional, cell-based; conditions: MCF7, 48 h

COc1c(C)cc2c(c1O)[C@H]1[C@@H]3[C@@H]4SC[C@H](N)C(=O)OC[C@@H](c5c(O)c(OC)c(C)c(OC(C)=O)c54)N3[C@@H](O)[C@@H](C2)N1C
IC50 (HT-29): 2 ng/mL (≈ 3.25 nM)
IC50 (A549 [1]): 2 ng/mL (≈ 3.25 nM)
IC50 (P388 [2]): 2 µM
IC50 (SK-MEL-28): 2 ng/mL (≈ 3.25 nM)

CC(C)[C@]12SSS[C@]3(C(=O)N1C)[C@@H](O)C1(c4c[nH]c5ccccc45)c4ccccc4N[C@@H]1N3C2=O (stereo partly drawn)
EC50 (P388 [3]): 46 ng/mL (≈ 87.7 nM)

CS[C@@]1(C(C)C)C(=O)N2C(=CC3(C45c6ccccc6N[C@H]4N4C(=O)[C@H](CO)N(C)C(=O)[C@@]4(O)[C@H]5O)c4ccccc4N[C@H]23)C(=O)N1C (stereo partly drawn)
EC50 (P388 [4]): 14800 ng/mL (≈ 22400 nM)

CC(C)[C@]12SSS[C@]3(C(=O)N1C)[C@@H](O)C1(C45c6ccccc6N[C@H]4N4C(=O)[C@@]6(CO)SSSS[C@]4(C(=O)N6C)[C@H]5O)c4ccccc4N[C@@H]1N3C2=O (stereo partly drawn)
EC50 (P388 [4]): 4.6 ng/mL (≈ 5.5 nM)

CC(C)[C@]12SSS[C@]3(C(=O)N1C)[C@@H](O)C1(C45c6ccccc6N[C@H]4N4C(=O)[C@@]6(CO)SSS[C@]4(C(=O)N6C)[C@H]5O)c4ccccc4N[C@@H]1N3C2=O (stereo partly drawn)
EC50 (P388 [4]): 4.3 ng/mL (≈ 5.34 nM)

C/C=C(/C)C(=O)OC[C@H]1C2=C(C[C@H]3[C@H]4C5=C(C[C@@H]([C@H](C#N)N13)N4C)C(=O)C(C)=C(OC)C5=O)C(=O)C(C)=C(OC)C2=O [RENIERAMYCIN M]
IC50 (DU-145): 0.019 µM
IC50 (QG-56): 0.00076 µM

CS[C@]1(C(C)C)C(=O)N2C(=CC3(C45c6ccccc6N[C@H]4N4C(=O)[C@H](CO)N(C)C(=O)[C@@]4(O)[C@H]5O)c4ccccc4N[C@H]23)C(=O)N1C (stereo partly drawn)
EC50 (P388 [4]): 15200 ng/mL (≈ 23000 nM)

CO[C@@]12C(=O)N(C)[C@@H](C(C)C)C(=O)N1[C@@H]1Nc3ccccc3C1(C13c4ccccc4N[C@@H]1N1C(=O)[C@@]4(C(C)C)SSS[C@]1(C(=O)N4C)[C@@H]3O)[C@H]2O (stereo partly drawn)
EC50 (P388 [4]): 190 ng/mL (≈ 252 nM)

CO[C@@]12C(=O)N(C)[C@@H](CO)C(=O)N1[C@@H]1Nc3ccccc3C1(C13c4ccccc4N[C@@H]1N1C(=O)[C@@]4(C(C)C)SS[C@]1(C(=O)N4C)[C@H]3O)[C@@H]2O (stereo partly drawn)
EC50 (P388 [4]): 1400 ng/mL (≈ 1980 nM)

CO[C@@]12C(=O)N(C)[C@@H](CO)C(=O)N1[C@@H]1Nc3ccccc3C1(C13c4ccccc4N[C@@H]1N1C(=O)[C@@]4(C(C)C)SS[C@]1(C(=O)N4C)[C@@H]3O)[C@H]2O (stereo partly drawn)
EC50 (P388 [4]): 180 ng/mL (≈ 254 nM)

CSS[C@@]1(C(C)C)C(=O)N2C(=CC3(C45c6ccccc6N[C@H]4N4C(=O)[C@H](CO)N(C)C(=O)[C@@]4(O)[C@H]5O)c4ccccc4N[C@H]23)C(=O)N1C (stereo partly drawn)
EC50 (P388 [4]): 1100 ng/mL (≈ 1590 nM)

COc1ccc2c3c(n(CC=C(C)C)c2c1)[C@H](C=C(C)C)N1C(=O)[C@@H]2CCCN2C(=O)[C@]1(O)C3=O
IC50 (A549 [5]): 16.9 µM
IC50 (MOLT-4): 25.7 µM
IC50 (Bel-7402): 25.6 µM
IC50 (HL-60): 1.9 µM

COc1cc2c(cc1O)CCN[C@@]21CS[C@@H]2c3c(OC(C)=O)c(C)c4c(c3[C@H](COC1=O)N1[C@@H]2[C@@H]2N[C@@H](Cc3cc(C)c(OC)c(O)c32)[C@@H]1O)OCO4
IC50 (HT-29): 0.5 ng/mL (≈ 0.669 nM)
IC50 (A549 [1]): 0.2 ng/mL (≈ 0.267 nM)
IC50 (P388 [2]): 0.2 µM
IC50 (SK-MEL-28): 5 ng/mL (≈ 6.69 nM)

CC(C)[C@]12SS[C@]3(C(=O)N1C)[C@@H](O)C1(C45c6ccccc6N[C@H]4N4C(=O)[C@@]6(CO)SSSS[C@]4(C(=O)N6C)[C@H]5O)c4ccccc4N[C@@H]1N3C2=O (stereo partly drawn)
EC50 (P388 [3]): 1.85 ng/mL (≈ 2.3 nM)

CSS[C@]1(C(C)C)C(=O)N2C(=CC3(C45c6ccccc6N[C@H]4N4C(=O)[C@H](CO)N(C)C(=O)[C@@]4(O)[C@H]5O)c4ccccc4N[C@H]23)C(=O)N1C (stereo partly drawn)
EC50 (P388 [4]): 100 ng/mL (≈ 144 nM)

CC(C)[C@]12SSSS[C@]3(C(=O)N1C)[C@@H](O)C1(C45c6ccccc6N[C@H]4N4C(=O)[C@@]6(C(C)C)SS[C@]4(C(=O)N6C)[C@H]5O)c4ccccc4N[C@@H]1N3C2=O (stereo partly drawn)
EC50 (P388 [4]): 2.1 ng/mL (≈ 2.57 nM)

CC(C)[C@]12SS[C@]3(C(=O)N1C)[C@@H](O)C1(C45c6ccccc6N[C@H]4N4C(=O)[C@@]6(CO)SSS[C@]4(C(=O)N6C)[C@H]5O)c4ccccc4N[C@@H]1N3C2=O (stereo partly drawn)
EC50 (P388 [3]): 2.4 ng/mL (≈ 3.1 nM)

C=C(C)[C@H](O)Cn1c2c(c3ccc(OC)cc31)[C@H](O)[C@@]1(O)C(=O)N3CCC[C@H]3C(=O)N1[C@H]2C=C(C)C
IC50 (A549 [5]): 11.6 µM
IC50 (MOLT-4): 11 µM
IC50 (Bel-7402): 10.8 µM
IC50 (HL-60): 5.4 µM

C=C(C)[C@@H](O)Cn1c2c(c3ccc(OC)cc31)[C@H](O)[C@@]1(O)C(=O)N3CCC[C@H]3C(=O)N1[C@H]2C=C(C)C
IC50 (A549 [5]): 11 µM
IC50 (MOLT-4): 11 µM
IC50 (Bel-7402): 7 µM
IC50 (HL-60): 3.4 µM

CC(C)[C@]12SSSS[C@]3(C(=O)N1C)[C@@H](O)C1(C45c6ccccc6N[C@H]4N4C(=O)[C@@]6(CO)SS[C@]4(C(=O)N6C)[C@H]5O)c4ccccc4N[C@@H]1N3C2=O (stereo partly drawn)
EC50 (P388 [4]): 3 ng/mL (≈ 3.73 nM)

CC(C)[C@]12SS[C@]3(C(=O)N1C)[C@@H](O)C1(C45c6ccccc6N[C@H]4N4C(=O)[C@@]6(C(C)C)SS[C@]4(C(=O)N6C)[C@H]5O)c4ccccc4N[C@@H]1N3C2=O (stereo partly drawn)
EC50 (P388 [4]): 3.8 ng/mL (≈ 5.05 nM)

COc1ccc2c3c([nH]c2c1)[C@H](C=C(C)C)N1C(=O)[C@@H]2CCCN2C(=O)[C@]1(O)C3
IC50 (U-937): 18.2 µM

COc1ccc2c3c([nH]c2c1)[C@H](C=C(C)C)N1C(=O)[C@@H]2CCCN2C(=O)[C@@]1(O)[C@H]3O
IC50 (U-937): 92.4 µM

CC(C)[C@]12SSS[C@]3(C(=O)N1C)[C@@H](O)C1(C45c6ccccc6N[C@H]4N4C(=O)[C@@]6(CO)SS[C@]4(C(=O)N6C)[C@H]5O)c4ccccc4N[C@@H]1N3C2=O (stereo partly drawn)
EC50 (P388 [4]): 4.4 ng/mL (≈ 5.69 nM)

CO[C@@]12C(=O)N(C)[C@@H](CO)C(=O)N1[C@@H]1Nc3ccccc3C1(C13c4ccccc4N[C@@H]1N1C(=O)[C@@]4(C(C)C)SSSS[C@]1(C(=O)N4C)[C@H]3O)[C@@H]2O (stereo partly drawn)
EC50 (P388 [4]): 1050 ng/mL (≈ 1360 nM)

CC(C)[C@]12SS[C@]3(C(=O)N1C)[C@@H](O)C1(c4c[nH]c5ccccc45)c4ccccc4N[C@@H]1N3C2=O (stereo partly drawn)
EC50 (P388 [3]): 86 ng/mL (≈ 175 nM)

COc1c(C)cc2c(c1O)[C@@H]1N[C@H](C2)[C@H](O)N2[C@H]1[C@@H]1SC[C@H](N)C(=O)OC[C@H]2c2c(O)c(OC)c(C)c(OC(C)=O)c21
IC50 (HT-29): 10 ng/mL (≈ 16.6 nM)
IC50 (A549 [1]): 10 ng/mL (≈ 16.6 nM)
IC50 (P388 [2]): 10 µM
IC50 (SK-MEL-28): 5 ng/mL (≈ 8.31 nM)

CC(C)[C@]12SSS[C@]3(C(=O)N1C)[C@@H](O)C1(C45c6ccccc6N[C@H]4N4C(=O)[C@@]6(C(C)C)SS[C@]4(C(=O)N6C)[C@H]5O)c4ccccc4N[C@@H]1N3C2=O (stereo partly drawn)
EC50 (P388 [4]): 2.2 ng/mL (≈ 2.8 nM)

CS[C@]1(CO)C(=O)N2[C@H]3C(=CC=C[C@@H]3OC(C)=O)C[C@@]2(SC)C(=O)N1C
IC50 (HepG2): 7 µM
IC50 (NCI-H460): 3.4 µM
IC50 (SF-268): 34 µM
IC50 (MCF7): 3.1 µM

CC(C)[C@]12SSSS[C@]3(C(=O)N1C)[C@@H](O)C1(c4c[nH]c5ccccc45)c4ccccc4N[C@@H]1N3C2=O (stereo partly drawn)
EC50 (P388 [3]): 56 ng/mL (≈ 101 nM)

CN1C(=O)[C@]23Cc4ccccc4N2C(=O)[C@@]1(CO)SS3
IC50 (HepG2): 1.52 µM
IC50 (NCI-H460): 1.27 µM
IC50 (SF-268): 1.35 µM
IC50 (MCF7): 0.68 µM

COc1ccc2c(c1)N(/C=C/C(C)(C)OO)C(=O)[C@]21[C@H](C=C(C)C)N2C(=O)[C@@H]3CCCN3C(=O)[C@]2(O)[C@H]1O
IC50 (A549 [5]): 3.1 µM
IC50 (MOLT-4): 3.1 µM
IC50 (Bel-7402): 98.4 µM
IC50 (HL-60): 2.3 µM

CS[C@]1(CO)C(=O)n2c(cc3ccccc32)C(=O)N1C
IC50 (HepG2): 28.9 µM
IC50 (NCI-H460): > 100 µM
IC50 (SF-268): 35.7 µM
IC50 (MCF7): 29.5 µM

CC(C)[C@]12SS[C@]3(C(=O)N1C)[C@@H](O)C1(C45c6ccccc6N[C@H]4N4C(=O)[C@@]6(CO)SS[C@]4(C(=O)N6C)[C@H]5O)c4ccccc4N[C@@H]1N3C2=O (stereo partly drawn)
EC50 (P388 [3]): 1.75 ng/mL (≈ 2.36 nM)

COc1ccc2c(c1)N(CC=C(C)C)C(=O)[C@]21[C@H](C=C(C)C)N2C(=O)[C@@H]3CCCN3C(=O)[C@]2(O)[C@H]1O
IC50 (A549 [5]): 35.9 µM
IC50 (MOLT-4): 25.7 µM
IC50 (Bel-7402): 68.8 µM
IC50 (HL-60): 43.5 µM

COc1ccc2c(c1)N(CC=C(C)C)C(=O)[C@]21[C@H](C=C(C)C)N2C(=O)[C@]3(O)CCCN3C(=O)[C@]2(O)[C@H]1O
IC50 (A549 [5]): 35.5 µM
IC50 (MOLT-4): 25.7 µM
IC50 (Bel-7402): 17.5 µM
IC50 (HL-60): 45 µM
